Our source for the EC50 values is US20240270821A1, “GIP/GLP1/GCG TRI-RECEPTOR AGONISTS AND USES THEREOF” (priority 2023, published 2024).

Where two headings read alike, the source gives them in different places. Starred links: 1 amine or outer side, 2 acyl side, 3 side chain; linkers in the order of their positions; H or OH if unused. Non-standard residues stand in square brackets, D forms with d. Residues, ends and D or L forms follow the SMILES beside them. Groups on a side chain read outwards from the residue. No end group written: not given here. *: point of attachment. C18 diacid = O=C(O)CCCCCCCCCCCCCCCCC(=O)*; Phe(4-CN) = N#Cc1ccc(C[C@H](N)C(=O)O)cc1; αMePhe(2-F) = C[C@](N)(Cc1ccccc1F)C(=O)O; γGlu = O=C(O)[C@H](CCC(=O)[*:2])N[*:1]; αMe4Pal = C[C@](N)(Cc1ccncc1)C(=O)O; αMeY = C[C@](N)(Cc1ccc(O)cc1)C(=O)O; αMeF = C[C@](N)(Cc1ccccc1)C(=O)O; 4Pal = N[C@@H](Cc1ccncc1)C(=O)O; αMeL = CC(C)C[C@](C)(N)C(=O)O; αMeS = C[C@](N)(CO)C(=O)O; Orn = NCCC[C@H](N)C(=O)O; AEEA = NCCOCCOCC(=O)O; Aib = CC(C)(N)C(=O)O

As a reminder, the EC50 is the concentration giving half of the maximal effect.

Holding throughout (type): cell-based
The target in test [1] is T1, hGIPR (Homo sapiens, UniProt P48546).
T1 sequence (P48546 22-466): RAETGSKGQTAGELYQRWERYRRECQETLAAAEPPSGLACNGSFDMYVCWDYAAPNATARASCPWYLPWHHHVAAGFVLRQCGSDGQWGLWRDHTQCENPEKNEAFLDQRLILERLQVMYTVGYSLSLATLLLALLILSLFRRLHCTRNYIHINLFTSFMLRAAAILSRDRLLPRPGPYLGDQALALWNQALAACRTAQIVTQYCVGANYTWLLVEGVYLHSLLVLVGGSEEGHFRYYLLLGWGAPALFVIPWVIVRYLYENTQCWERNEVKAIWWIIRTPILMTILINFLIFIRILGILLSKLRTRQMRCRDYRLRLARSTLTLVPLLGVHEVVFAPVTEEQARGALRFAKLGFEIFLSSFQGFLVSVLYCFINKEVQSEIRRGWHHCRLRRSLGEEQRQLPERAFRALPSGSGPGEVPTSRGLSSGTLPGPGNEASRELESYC
The test can be described thus: Functional cAMP activity in the presence of 1% HSA. The following applies: read-out: cAMP Rel EC50, hGIPR.

The target in test [2] is T2, hGLP-1R (Homo sapiens, UniProt P43220). Kind of test: Functional cAMP activity in the presence of 1% HSA. Conditions: read-out: cAMP Rel EC50, hGLP-1R.
Another test has as its target human GcgR (Homo sapiens, UniProt P47871). The test can be described thus: Functional cAMP activity in the presence of 1% HSA. The following applies: read-out: cAMP Rel EC50, hGcgR.
For test [3], the target named is T1, hGIPR. The test can be described thus: Functional cAMP activation in the presence of 0.1% casein (no HSA). Conditions: read-out: Relative cAMP EC50, hGIPR.
For test [4], the target named is T2, hGLP-1R. The test is described as above. Conditions: read-out: Relative cAMP EC50, hGLP-1R.
Description: After a 30-minute incubation at 37° C., the resulting increase in intracellular cAMP is quantitatively determined using the CisBio CAMP Dynamic 2 HTRF Assay Kit (62AM4PEJ). Briefly, cAMP levels within the cell are detected by adding the cAMP-d2 conjugate in cell lysis buffer followed by the antibody anti-cAMP-Eu^3+-Cryptate, also in cell lysis buffer.
Intracellular cAMP levels are determined by extrapolation using a standard curve. Dose response curves of compounds are plotted as the percentage of stimulation normalized to minimum (buffer only) and maximum (maximum concentration of each control ligand) values and analyzed using a four parameter non-linear regression fit with a variable slope (Genedata Screener 13). EC50 is the concentration of compound causing half-maximal simulation in a dose response curve. Each relative EC50 value for the Geometric mean calculation is determined from a curve fitting.
In the next test the target is hGcgR (Homo sapiens, UniProt P47871). Described as above. The following applies: read-out: Relative cAMP EC50, hGcgR.
The mark [5] stands for this setting: HEK-293 clonal cell line, 1% HSA, geometric mean of relative EC50.
Setting [6] is: in the presence of 0.1% casein (no HSA), geometric mean of relative EC50.
The mark [7] stands for this setting: in the presence of 0.1% casein (no HSA), geometric mean.
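Wherever Relative cAMP EC50, hGIPR is given: intracellular cAMP rise after 30 min at 37 °C read by HTRF against a standard curve, scaled between buffer alone (0%) and top control ligand concentration (100%), four-parameter fit.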
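Wherever Relative cAMP EC50, hGLP-1R is given: intracellular cAMP rise after 30 min at 37 °C read by HTRF, normalized between buffer only (0%) and maximal control ligand (100%), four-parameter variable-slope fit.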
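Wherever Relative cAMP EC50, hGcgR is given: intracellular cAMP rise after 30 min at 37 °C, read by HTRF against a cAMP standard curve, scaled from buffer only (0%) to maximal control ligand response (100%).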

T2 sequence (P43220 24-463): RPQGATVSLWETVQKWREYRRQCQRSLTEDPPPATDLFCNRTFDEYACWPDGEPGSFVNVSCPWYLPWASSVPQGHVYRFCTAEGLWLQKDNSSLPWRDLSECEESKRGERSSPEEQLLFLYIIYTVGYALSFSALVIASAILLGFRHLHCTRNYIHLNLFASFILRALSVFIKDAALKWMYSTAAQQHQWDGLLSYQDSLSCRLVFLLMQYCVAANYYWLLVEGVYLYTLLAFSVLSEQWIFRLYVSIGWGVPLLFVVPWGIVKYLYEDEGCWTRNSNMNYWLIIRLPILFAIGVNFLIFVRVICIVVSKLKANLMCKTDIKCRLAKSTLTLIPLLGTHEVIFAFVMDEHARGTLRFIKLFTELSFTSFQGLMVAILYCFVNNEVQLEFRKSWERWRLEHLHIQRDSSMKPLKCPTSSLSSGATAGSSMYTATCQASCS
Chain of human GcgR (P47871 26-477): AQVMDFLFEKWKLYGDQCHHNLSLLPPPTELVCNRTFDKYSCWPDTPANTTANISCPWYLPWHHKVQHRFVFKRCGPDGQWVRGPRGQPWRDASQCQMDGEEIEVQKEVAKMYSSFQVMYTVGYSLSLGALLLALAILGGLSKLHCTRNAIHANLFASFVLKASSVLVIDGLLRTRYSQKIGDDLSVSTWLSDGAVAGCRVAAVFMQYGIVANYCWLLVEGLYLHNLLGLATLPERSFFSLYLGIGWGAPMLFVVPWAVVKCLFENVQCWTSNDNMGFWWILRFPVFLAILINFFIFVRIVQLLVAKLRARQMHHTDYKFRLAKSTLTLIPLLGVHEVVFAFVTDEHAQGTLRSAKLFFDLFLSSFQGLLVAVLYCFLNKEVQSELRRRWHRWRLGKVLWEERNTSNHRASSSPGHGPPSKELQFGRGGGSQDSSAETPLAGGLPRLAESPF
Chain of hGcgR (P47871 26-477): as above

Turning to `CC[C@H](C)[C@H](NC(=O)[C@H](Cc1ccccc1)NC(=O)[C@H](CCCN)NC(=O)C(C)(C)NC(=O)[C@H](CCC(N)=O)NC(=O)[C@H](C)NC(=O)[C@H](CCCCNC(=O)CC[C@H](NC(=O)CNC(=O)CCCCCCCCCCCCCCCCC(=O)O)C(=O)O)NC(=O)[C@H](CCCN)NC(=O)[C@H](CC(=O)O)NC(=O)[C@H](CC(C)C)NC(=O)[C@](C)(CC(C)C)NC(=O)[C@@H](NC(=O)[C@](C)(CO)NC(=O)[C@H](Cc1ccncc1)NC(=O)[C@H](CC(=O)O)NC(=O)[C@H](CO)NC(=O)[C@@H](NC(=O)[C@](C)(Cc1ccccc1F)NC(=O)[C@@H](NC(=O)CNC(=O)[C@H](CCC(N)=O)NC(=O)C(C)(C)NC(=O)[C@@H](N)Cc1ccc(O)cc1)[C@@H](C)O)[C@@H](C)O)[C@@H](C)CC)C(=O)N[C@H](CCC(=O)O)C(=O)N[C@@](C)(Cc1ccc(O)cc1)C(=O)N[C@@H](CC(C)C)C(=O)N[C@@H](CCC(N)=O)C(=O)N[C@@H](CCC(=O)O)C(=O)NCC(=O)NCC(=O)N1CCC[C@H]1C(=O)N[C@@H](CO)C(=O)N[C@@H](CO)C(=O)NCC(=O)N[C@@H](CCC(=O)O)C(=O)N1CCC[C@H]1C(=O)N1CCC[C@H]1C(=O)N1CCC[C@H]1C(=O)N[C@@H](CCC(=O)O)C(=O)NCC(=O)N[C@H](C(=O)N[C@@H](CCC(=O)O)C(=O)N[C@@H](CCC(=O)O)C(N)=O)[C@@H](C)O` [Example 658], the concentration for a half-maximal effect (EC50) at hGIPR [1] (setting [5]) came to 12 nM; on hGLP-1R [2] (setting [5]), 106 nM; at human GcgR (setting [5]) it was 376 nM; at hGIPR [3] (setting [6]), 0.0379 nM; at hGLP-1R [4] (setting [6]), 0.34 nM; at hGcgR (setting [6]), 1.05 nM.

“H-Y[Aib]QGT[αMePhe(2-F)]TSD[4Pal][αMeS]I[αMeL]LD[Orn]K([γGlu-γGlu-C18 diacid])AQ[Aib][Orn]FI[dE][αMeY]LTEGGPSSGEPPPSGTE-NH2 [Example 542]”: the EC50 on hGIPR [1] was found to be 1.69 nM; on hGLP-1R [2], 29.6 nM; at human GcgR, 256 nM; at hGIPR [3], 0.0336 nM; at hGLP-1R [4], 0.388 nM; on hGcgR, 5.03 nM.

“Y[Aib]QGT[αMePhe(2-F)]TSD[4Pal][αMeS]I[αMeL]LD[Orn]K([AEEA-γGlu-C18 diacid])AQ[αMe4Pal]EFI[dE][αMeY]LIEGGPSSGEPPPSGE-NH2 [Example 1141]”: the EC50 at hGIPR [1] amounted to 0.816 nM; on hGLP-1R [2], 47.5 nM; at human GcgR, 169 nM; at hGIPR [3] (setting [7]), 0.00921 nM; at hGLP-1R [4] (setting [7]), 0.412 nM; on hGcgR (setting [7]) it was 1.15 nM.

In the case of “H-Y[Aib]QGTFTSD[4Pal]SQ[αMeL]LD[Orn]K([AEEA-γGlu-C18 diacid])AQ[αMe4Pal]AFIE[αMeY]LIE[Aib]GPSSGEPPPSGSEE-NH2 [Example 1097]”, the 50% effective concentration (EC50) on hGIPR [1] was 27.3 nM; at hGLP-1R [2] it was 141 nM; at human GcgR, 752 nM; on hGIPR [3] (setting [7]), 0.136 nM; on hGLP-1R [4] (setting [7]), 1.59 nM; on hGcgR (setting [7]) it was 6.16 nM.

Take “H-Y[Aib]QGT[αMePhe(2-F)]TSD[4Pal][αMeS]ILLD[Orn]K([γGlu-γGlu-C18 diacid])AQ[Aib][Orn]FI[dE]YLIEGGPSSGEPPPSGTEE-NH2 [Example 576]”: the EC50 on hGIPR [1] stood at 8.12 nM; at hGLP-1R [2], 56.8 nM; at human GcgR, 646 nM; at hGIPR [3], 0.0723 nM; on hGLP-1R [4] it was 0.528 nM; on hGcgR, 6.37 nM.

For the molecule “H-Y[Aib]QGTFTSD[4Pal]SQ[αMeL]LDKK([γGlu-γGlu-C18 diacid])AQ[αMe4Pal]AFIEYLIAGGESSGAPPPSGSEE-NH2 [Example 963]”, the EC50 at hGIPR [1] came to 25.1 nM; at hGLP-1R [2], 215 nM; on human GcgR, 900 nM; at hGIPR [3] (setting [7]), 0.244 nM; on hGLP-1R [4] (setting [7]), 1.77 nM; on hGcgR (setting [7]) it was 5.81 nM.

With `CC[C@H](C)[C@H](NC(=O)[C@H](Cc1ccccc1)NC(=O)[C@H](CCCN)NC(=O)C(C)(C)NC(=O)[C@H](CCC(N)=O)NC(=O)[C@H](C)NC(=O)[C@H](CCCCNC(=O)COCCOCCNC(=O)CC[C@H](NC(=O)CCCCCCCCCCCCCCCCC(=O)O)C(=O)O)NC(=O)[C@H](CCCN)NC(=O)[C@H](CC(=O)O)NC(=O)[C@H](CC(C)C)NC(=O)[C@H](CC(C)C)NC(=O)[C@H](CO)NC(=O)[C@](C)(CO)NC(=O)[C@H](Cc1ccc(O)cc1)NC(=O)[C@H](CC(=O)O)NC(=O)[C@H](CO)NC(=O)[C@@H](NC(=O)[C@](C)(Cc1ccccc1)NC(=O)[C@@H](NC(=O)CNC(=O)[C@H](CCC(N)=O)NC(=O)C(C)(C)NC(=O)[C@@H](N)Cc1ccc(O)cc1)[C@@H](C)O)[C@@H](C)O)C(=O)N[C@H](CCC(=O)O)C(=O)N[C@@](C)(Cc1ccc(O)cc1)C(=O)N[C@@H](CC(C)C)C(=O)N[C@@H](CC(C)C)C(=O)N[C@@H](CCC(=O)O)C(=O)NCC(=O)NCC(=O)N1CCC[C@H]1C(=O)N[C@@H](CO)C(=O)N[C@@H](CO)C(=O)NCC(=O)N[C@@H](CCC(=O)O)C(=O)N1CCC[C@H]1C(=O)N1CCC[C@H]1C(=O)N1CCC[C@H]1C(=O)N[C@@H](CCC(=O)O)C(N)=O` [Example 390] (H-Y[Aib]QGT[αMeF]TSDY[αMeS]SLLD[Orn]K([AEEA-γGlu-C18 diacid])AQ[Aib][Orn]FI[dE][αMeY]LLEGGPSSGEPPPE-NH2), the EC50 at hGIPR [1] amounted to 37.8 nM; at hGLP-1R [2], 19.6 nM; at human GcgR, 549 nM; at hGIPR [3] (setting [7]) it was 0.122 nM; at hGLP-1R [4] (setting [7]), 0.134 nM; on hGcgR (setting [7]), 3.08 nM.

With “H-Y[Aib]QGTFTSD[Phe(4-CN)]S[Orn][αMeL]LDKK([AEEA-γGlu-C18 diacid])AQ[Aib]AFIEYLLE[Aib]GPSSGAPPPSGS-NH2 [Example 191]”, the EC50 on hGIPR [1] was 47.4 nM; on hGLP-1R [2], 230 nM; at human GcgR, 344 nM; on hGIPR [3] (setting [7]), 0.422 nM; on hGLP-1R [4] (setting [7]), 2.48 nM; on hGcgR (setting [7]), 2.11 nM.

For the molecule “H-Y[Aib]QGT[αMePhe(2-F)]TSDYSILLDKK([AEEA-γGlu-C18 diacid])AQ[Aib]AFIEFLEEGGPSSGAPPPSEG-NH2 [Example 412]”, the 50% effective concentration (EC50) at hGIPR [1] was 12.5 nM; on hGLP-1R [2] it was 46 nM; at human GcgR, 467 nM; at hGIPR [3], 0.0351 nM; at hGLP-1R [4] it was 0.282 nM; at hGcgR it was 2.36 nM.

Consider `CC[C@H](C)[C@H](NC(=O)[C@H](Cc1ccccc1)NC(=O)[C@H](C)NC(=O)C(C)(C)NC(=O)[C@H](CCC(N)=O)NC(=O)[C@H](C)NC(=O)[C@H](CCCCNC(=O)CC[C@H](NC(=O)CC[C@H](NC(=O)CCCCCCCCCCCCCCCCC(=O)O)C(=O)O)C(=O)O)NC(=O)[C@H](CCCCN)NC(=O)[C@H](CC(=O)O)NC(=O)[C@H](CC(C)C)NC(=O)[C@H](CC(C)C)NC(=O)[C@@H](NC(=O)[C@H](CO)NC(=O)[C@H](Cc1ccc(O)cc1)NC(=O)[C@H](CC(=O)O)NC(=O)[C@H](CO)NC(=O)[C@@H](NC(=O)[C@](C)(Cc1ccccc1F)NC(=O)[C@@H](NC(=O)CNC(=O)[C@H](CCC(N)=O)NC(=O)C(C)(C)NC(=O)[C@@H](N)Cc1c[nH]cn1)[C@@H](C)O)[C@@H](C)O)[C@@H](C)CC)C(=O)N[C@@H](CCC(=O)O)C(=O)N[C@@H](Cc1ccc(O)cc1)C(=O)N[C@@H](CC(C)C)C(=O)N[C@@H](CCC(=O)O)C(=O)N[C@@H](CCC(=O)O)C(=O)NCC(=O)NCC(=O)N1CCC[C@H]1C(=O)N[C@@H](CO)C(=O)N[C@@H](CO)C(=O)NCC(=O)N[C@@H](C)C(=O)N1CCC[C@H]1C(=O)N1CCC[C@H]1C(=O)N1CCC[C@H]1C(=O)N[C@@H](CO)C(N)=O` [Example 426] (H-H[Aib]QGT[αMePhe(2-F)]TSDYSILLDKK([γGlu-γGlu-C18 diacid])AQ[Aib]AFIEYLEEGGPSSGAPPPS-NH2), for which the EC50 at hGIPR [1] was determined as 29.8 nM; at hGLP-1R [2] it was 16.6 nM; at human GcgR, 740 nM; at hGIPR [3], 0.079 nM; on hGLP-1R [4], 0.139 nM; at hGcgR it was 4.33 nM.
